Source: PMC6277767, “Broad and Region-Specific Impacts of the Synthetic Cannabinoid CP 55,940 in Adolescent and Adult Female Mouse Brains” (Frontiers in Molecular Neuroscience, 2018)

Tested on: CD1 female mouse brain lipidome
Test: Brain-region lipid levels (HPLC/MS/MS lipidomics) 2 h after single i.p. 3 mg/kg CP 55,940 vs vehicle
Assay type: in vivo
Experimental: The Bloomington Institutional Animal Care and Use Committee of Indiana University reviewed and approved the animal procedures. Female mice from the CD1 strain were utilized to match our study examining THC’s effects on the brain lipidome ([Leishman et al., 2018]). Mice were given a single i.p. injection of either 3 mg/kg CP or 1:1:18 cremophor:ethanol:saline vehicle (please refer to the section “3 mg/kg CP Is Relevant for Synthetic Cannabinoid Abuse and Has Stronger Effects on the Female Mouse Brain Lipidome During Adolescence” for a justification of dose and use of female mice). Three different age groups were given injections: PND 35 and PND 50 adolescents, and adult mice (PND 113). At least eight mice in each age group received CP and at least eight received vehicle. Matching the THC study time course ([Leishman et al., 2018]), mice were sacrificed via rapid decapitation 2 h after injection. Brains were immediately removed and flash-frozen in liquid nitrogen, and then stored at -80°C until dissections were performed. Brains were dissected on an ice-cold dissection plate into the following regions: STR, HIPP, CER, THAL, CTX, HYP, MID, and STEM. These abbreviations for these brain areas will be used exclusively when discussing the results generated by these specific dissections. Each dissected area was immediately placed in liquid nitrogen and then stored at -80°C until used for lipid extraction.
Tissue extracts were performed as previously described ([Bradshaw et al., 2006]; [Stuart et al., 2013]; [Raboune et al., 2014]; [Leishman et al., 2016a],[b], [2017], [2018]). First, samples were shock frozen in liquid nitrogen, weighed, and transferred to a centrifuge tube. The mass of the largest sample was multiplied by 50 to determine how many milliliters of HPLC-grade methanol (Fisher, Fair Lawn, NJ, United States) to add. Then, samples were spiked with 500 pmol deuterium-labeled NAGly (d8NAGly; Cayman Chemical, Ann Arbor, MI, United States). Samples were placed on ice in darkness for 2 h then individually homogenized and centrifuged at 19,000 × g for 20 min at 20°C. Supernatants were diluted with HPLC water (purified in house) to make a solution of 75% water, 25% supernatant. Lipids were partially purified on C18 solid phase extraction columns (Agilent, Palo Alto, CA, United States). A series of four elutions with 1.5 mL of 60%, 75%, 85%, and 100% methanol were collected ([Stuart et al., 2013]; [Leishman et al., 2016a],[b], [2018]).
As previously described ([Bradshaw et al., 2006]; [Tan et al., 2006]; [Smoum et al., 2010]; [Stuart et al., 2013]; [Tortoriello et al., 2013]; [Raboune et al., 2014]; [Leishman et al., 2016a],[b], [2017], [2018]), samples were analyzed using an Applied Biosystems API 3000 triple quadrupole mass spectrometer with electrospray ionization (Foster City, CA, United States). Using an Agilent XDB-C18 reversed phase analytical column and optimized mobile phase gradients, 20 μL from each elution were chromatographed. Two Shimadzu 10ADvp pumps (Columbia, MD, United States) provided the pressure for gradient elution. Mobile phase A: 20% methanol, 80% water (v/v) and 1 mM ammonium acetate (Sigma, St. Louis, MO, United States). Mobile phase B: 100% methanol, 1 mM ammonium acetate. Every method run began with 0% mobile phase B, reached 100% mobile phase B flowing at 0.2 mL/min, and gradually returned to 0% mobile phase B.
This screening library will be referred to as the lipidome when discussing data from this study. HPLC/MS/MS data were analyzed using Analyst software (Applied Biosystems) ([Bradshaw et al., 2006]; [Tan et al., 2006]; [Stuart et al., 2013]; [Tortoriello et al., 2013]; [Raboune et al., 2014]; [Leishman et al., 2016a],[b], [2017], [2018]). Chromatograms (Supplementary Figure 3) were generated by determining the retention time of analytes from the analytical column with a [M-1] or [M+1] parent peak and a fragmentation peak corresponding to the programmed values. […]

CCCCCCC(C)(C)c1ccc([C@@H]2C[C@H](O)CC[C@H]2CCCO)c(O)c1 [CP 55,940]
changes in lipid levels that were decreases (PND 50 MID): two
number of lipids changed (PND 50 MID, 62 detected): 26
2-linoleoyl glycerol level vs vehicle (PND 50 STEM): ↓ (1-1.49 times lower than vehicle)
2-oleoyl glycerol level vs vehicle (PND 50 STEM): ↓ (1-1.49 times lower than vehicle)
2-palmitoyl glycerol level vs vehicle (PND 50 STEM): ↓ (1-1.49 times lower than vehicle)
6-ketoPGF1α level vs vehicle (PND 50 STEM): ↓ (1-1.49 times lower than vehicle)
Linoleic acid level vs vehicle (PND 50 STEM): ↓ (1-1.49 times lower than vehicle)
N-arachidonoyl GABA level vs vehicle (PND 50 STEM): ↓ (1-1.49 times lower than vehicle)
N-arachidonoyl phenylalanine level vs vehicle (PND 50 STEM): ↑ (1-1.49 times higher than vehicle)
N-arachidonoyl serine level vs vehicle (PND 50 STEM): ↓ (1-1.49 times lower than vehicle)
N-arachidonoyl taurine level vs vehicle (PND 50 STEM): ↓ (1-1.49 times lower than vehicle)
N-arachidonoyl tyrosine level vs vehicle (PND 50 STEM): ↓ (1-1.49 times lower than vehicle)
N-oleoyl methionine level vs vehicle (PND 50 STEM): ↓ (1-1.49 times lower than vehicle)
N-palmitoyl leucine level vs vehicle (PND 50 STEM): ↑ (1-1.49 times higher than vehicle)
N-palmitoyl tyrosine level vs vehicle (PND 50 STEM): ↑ (1-1.49 times higher than vehicle)
Oleic Acid level vs vehicle (PND 50 STEM): ↓ (1-1.49 times lower than vehicle)
PGE2 level vs vehicle (PND 50 STEM): ↓ (1-1.49 times lower than vehicle)
PGF2α level vs vehicle (PND 50 STEM): ↓ (1-1.49 times lower than vehicle)
2-arachidonoyl glycerol level vs vehicle (PND 50 STR): ↓ (1-1.49 times lower than vehicle)
2-linoleoyl glycerol level vs vehicle (PND 50 STR): ↓ (1-1.49 times lower than vehicle)
Arachidonic acid level vs vehicle (PND 50 STR): ↓ (1-1.49 times lower than vehicle)
Linoleic acid level vs vehicle (PND 50 STR): ↓ (1-1.49 times lower than vehicle)
N-arachidonoyl GABA level vs vehicle (PND 50 STR): ↓ (1-1.49 times lower than vehicle)
N-arachidonoyl glycine level vs vehicle (PND 50 STR): ↓↓ (1.50-1.99 times lower than vehicle)
N-arachidonoyl phenylalanine level vs vehicle (PND 50 STR): ↓ (1-1.49 times lower than vehicle)
N-arachidonoyl taurine level vs vehicle (PND 50 STR): ↓ (1-1.49 times lower than vehicle)
N-docosahexaenoyl GABA level vs vehicle (PND 50 STR): ↓ (1-1.49 times lower than vehicle)
N-docosahexaenoyl glycine level vs vehicle (PND 50 STR): ↓↓ (1.50-1.99 times lower than vehicle)
N-palmitoyl leucine level vs vehicle (PND 50 STR): ↑ (1-1.49 times higher than vehicle)
N-palmitoyl tyrosine level vs vehicle (PND 50 STR): ↑ (1-1.49 times higher than vehicle)
N-palmitoyl valine level vs vehicle (PND 50 STR): ↑↑ (1.50-1.99 times higher than vehicle)
Oleic Acid level vs vehicle (PND 50 STR): ↓ (1-1.49 times lower than vehicle)
PGF2α level vs vehicle (PND 50 STR): ↑ (1-1.49 times higher than vehicle)
2-arachidonoyl glycerol level vs vehicle (PND 50 THAL): ↓ (1-1.49 times lower than vehicle)
2-linoleoyl glycerol level vs vehicle (PND 50 THAL): ↓ (1-1.49 times lower than vehicle)
2-oleoyl glycerol level vs vehicle (PND 50 THAL): ↓ (1-1.49 times lower than vehicle)
6-ketoPGF1α level vs vehicle (PND 50 THAL): ↑↑ (1.50-1.99 times higher than vehicle)
Arachidonic acid level vs vehicle (PND 50 THAL): ↓ (1-1.49 times lower than vehicle)
Linoleic acid level vs vehicle (PND 50 THAL): ↓ (1-1.49 times lower than vehicle)
N-arachidonoyl GABA level vs vehicle (PND 50 THAL): ↓ (1-1.49 times lower than vehicle)
N-arachidonoyl ethanolamine level vs vehicle (PND 50 THAL): ↓ (1-1.49 times lower than vehicle)
N-arachidonoyl glycine level vs vehicle (PND 50 THAL): ↓↓ (1.50-1.99 times lower than vehicle)
N-arachidonoyl phenylalanine level vs vehicle (PND 50 THAL): ↓↓ (1.50-1.99 times lower than vehicle)
N-arachidonoyl taurine level vs vehicle (PND 50 THAL): ↓ (1-1.49 times lower than vehicle)
N-arachidonoyl tyrosine level vs vehicle (PND 50 THAL): ↓ (1-1.49 times lower than vehicle)
N-docosahexaenoyl GABA level vs vehicle (PND 50 THAL): ↓ (1-1.49 times lower than vehicle)
N-linoleoyl GABA level vs vehicle (PND 50 THAL): ↓↓ (1.50-1.99 times lower than vehicle)
N-palmitoyl leucine level vs vehicle (PND 50 THAL): ↑ (1-1.49 times higher than vehicle)
N-palmitoyl serine level vs vehicle (PND 50 THAL): ↓ (1-1.49 times lower than vehicle)
N-stearoyl serine level vs vehicle (PND 50 THAL): ↓ (1-1.49 times lower than vehicle)
Oleic Acid level vs vehicle (PND 50 THAL): ↓ (1-1.49 times lower than vehicle)
PGE2 level vs vehicle (PND 50 THAL): ↓ (1-1.49 times lower than vehicle)
PGF2α level vs vehicle (PND 50 THAL): ↓ (1-1.49 times lower than vehicle)
changes in NAEs (all decreases) (PND 50 brain): 16
changes in lipoamines derived from AA (PND 50 brain): 41
decreases in 2-acyl glycerol levels (PND 50 brain): 17
decreases in PG levels (PND 50 brain): 11
decreases in free fatty acid levels (PND 50 brain): 16
increases in PG levels (PND 50 brain): 7
percentage of detected lipids modified with acute CP (PND 50 brain, 450 detected): 31.33%
total changes in lipid levels across the eight regions (adult): 97
2-arachidonoyl glycerol level vs vehicle (adult CER): ↓ (1-1.49 times lower than vehicle)
2-linoleoyl glycerol level vs vehicle (adult CER): ↓↓ (1.50-1.99 times lower than vehicle)
2-oleoyl glycerol level vs vehicle (adult CER): ↓ (1-1.49 times lower than vehicle)
6-ketoPGF1α level vs vehicle (adult CER): ↓ (1-1.49 times lower than vehicle)
Arachidonic acid level vs vehicle (adult CER): ↓ (1-1.49 times lower than vehicle)
Linoleic acid level vs vehicle (adult CER): ↓↓ (1.50-1.99 times lower than vehicle)
N-arachidonoyl GABA level vs vehicle (adult CER): ↓↓ (1.50-1.99 times lower than vehicle)
N-arachidonoyl ethanolamine level vs vehicle (adult CER): ↓↓ (1.50-1.99 times lower than vehicle)
N-arachidonoyl phenylalanine level vs vehicle (adult CER): ↓↓↓ (2-2.99 times lower than vehicle)
N-arachidonoyl taurine level vs vehicle (adult CER): ↓ (1-1.49 times lower than vehicle)
N-docosahexaenoyl GABA level vs vehicle (adult CER): ↓ (1-1.49 times lower than vehicle)
N-docosahexaenoyl ethanolamine level vs vehicle (adult CER): ↓ (1-1.49 times lower than vehicle)
N-linoleoyl GABA level vs vehicle (adult CER): ↓ (1-1.49 times lower than vehicle)
N-linoleoyl ethanolamine level vs vehicle (adult CER): ↓↓ (1.50-1.99 times lower than vehicle)
N-oleoyl serine level vs vehicle (adult CER): ↓ (1-1.49 times lower than vehicle)
N-oleoyl valine level vs vehicle (adult CER): ↑↑↑ (2-2.99 times higher than vehicle)
N-palmitoyl tyrosine level vs vehicle (adult CER): ↓ (1-1.49 times lower than vehicle)
Oleic Acid level vs vehicle (adult CER): ↓↓ (1.50-1.99 times lower than vehicle)
PGE2 level vs vehicle (adult CER): ↓ (1-1.49 times lower than vehicle)
PGF2α level vs vehicle (adult CER): ↓ (1-1.49 times lower than vehicle)
changes in lipid levels that were decreases (adult CER): 20
changes in lipid levels that were increases (adult CER): 1
phosphoLEA level vs vehicle (adult CER): ↓ (1-1.49 times lower than vehicle)
number of lipids changed (adult CER, 53 detected): 21
2-linoleoyl glycerol level vs vehicle (adult CTX): ↓ (1-1.49 times lower than vehicle)
6-ketoPGF1α level vs vehicle (adult CTX): ↓ (1-1.49 times lower than vehicle)
Arachidonic acid level vs vehicle (adult CTX): ↓ (1-1.49 times lower than vehicle)
N-arachidonoyl taurine level vs vehicle (adult CTX): ↓ (1-1.49 times lower than vehicle)
N-linoleoyl GABA level vs vehicle (adult CTX): ↓ (1-1.49 times lower than vehicle)
N-palmitoyl valine level vs vehicle (adult CTX): ↑ (1-1.49 times higher than vehicle)
N-stearoyl phenylalanine level vs vehicle (adult CTX): ↓↓ (1.50-1.99 times lower than vehicle)
PGF2α level vs vehicle (adult CTX): ↓ (1-1.49 times lower than vehicle)
number of lipids changed (adult CTX, 58 detected): eight
2-linoleoyl glycerol level vs vehicle (adult HIPP): ↓ (1-1.49 times lower than vehicle)
N-arachidonoyl GABA level vs vehicle (adult HIPP): ↓ (1-1.49 times lower than vehicle)
N-arachidonoyl alanine level vs vehicle (adult HIPP): ↓ (1-1.49 times lower than vehicle)
N-arachidonoyl glycine level vs vehicle (adult HIPP): ↓ (1-1.49 times lower than vehicle)
N-arachidonoyl phenylalanine level vs vehicle (adult HIPP): ↓↓ (1.50-1.99 times lower than vehicle)
N-docosahexaenoyl GABA level vs vehicle (adult HIPP): ↓ (1-1.49 times lower than vehicle)
N-oleoyl GABA level vs vehicle (adult HIPP): ↓ (1-1.49 times lower than vehicle)
N-oleoyl phenylalanine level vs vehicle (adult HIPP): ↓ (1-1.49 times lower than vehicle)
